Assay results reported in ChEMBL document CHEMBL6153174, “Design and Synthesis of Novel Deazapurine DNMT 1 Inhibitors with In Vivo Efficacy in DLBCL” (J Med Chem, 2025).

Key:
[1] = tested on: U2932; assay: Antiproliferative activity against human U2932 cells assessed as inhibition of cell viability measured after 72 hrs by MTT assay; format: functional, cell-based; settings: U2932, 72 h
[2] = Antitumor activity against human TMD8 cells harbouring […] xenografted in mouse model assessed as body weight change at 2.5 mg/kg, ip QD relative to control; format: functional
[3] = Upregulation of BAX mRNA level in human DOHH-2 cells assessed as fold change at 300 nM measured after 6 days by PCR analysis; format: functional; settings: time 6 day
[4] = Antitumor activity against human TMD8 cells harbouring […] xenografted in mouse model assessed as tumor inhibition rate at 2.5 mg/kg, ip QD relative to control; format: functional; set-up: scale not given: the % may be the effect or the level left
[5] = Upregulation of FAS mRNA level in human DOHH-2 cells assessed as fold change at 300 nM measured after 6 days by PCR analysis; format: functional; settings: time 6 day
[6] = tested on: DOHH-2; assay: Antiproliferative activity against human DOHH-2 cells assessed as inhibition of cell viability measured after 72 hrs by MTT assay; format: functional, cell-based; settings: DOHH-2, 72 h
[7] = Antiproliferative activity against human NK-YS cells assessed as inhibition of cell viability measured after 72 hrs by MTT assay; format: functional, cell-based
[8] = tested on: TMD8; assay: Antitumor activity against human TMD8 cells xenografted in mouse model assessed as tumor inhibition rate at 2.5 mg/kg, ip QD relative to control; format: functional; set-up: scale not given: the % may be the effect or the level left
[9] = Antitumor activity against human TMD8 cells harbouring TP53 mutant xenografted in mouse model assessed as body weight change at 2.5 mg/kg, ip QD relative to control; format: functional
[10] = Antitumor activity against human TMD8 cells harbouring TP53 mutant xenografted in mouse model assessed as tumor inhibition rate at 2.5 mg/kg, ip QD relative to control; format: functional; set-up: scale not given: the % may be the effect or the level left
[11] = tested on: Jurkat; assay: Antiproliferative activity against human Jurkat cells assessed as inhibition of cell viability measured after 72 hrs by MTT assay; format: functional, cell-based
[12] = tested on: TMD8; assay: Antiproliferative activity against human TMD8 cells assessed as inhibition of cell viability measured after 72 hrs by MTT assay; format: functional, cell-based; settings: TMD8, 72 h

In the case of `Nc1ncn([C@@H]2O[C@H](CO)[C@@H](O)[C@H]2O)c(=O)n1` [AZACITIDINE], the IC50 [1] is reported as 1830 nM, the Activity [2] is reported as -5.9% and the “fold change (FC)” value [3] is reported as 1.86. For the same compound, the Activity [4] was 52.1%, the “fold change (FC)” value [5] was 1.8 and the IC50 [6] was 340 nM. For the same compound, the IC50 [7] was 3280 nM, the Activity [8] was 53.02% and the Activity [9] was -5.9%. The Activity [10] was 43.6%, the IC50 [11] was 1080 nM and the IC50 [12] was 2840 nM.
